Measured values from paper PMC10425983 (ACS Infectious Diseases, 2023).

Key:
[1] = MDCK-wt permeability assay; type: in vitro ADME, canine; details: dog
[2] = biological target: T1, CYP2C8 (Homo sapiens, UniProt P10632); test: CYP inhibition CYP2C8; type: in vitro ADME
T1 sequence (P10632 1-490): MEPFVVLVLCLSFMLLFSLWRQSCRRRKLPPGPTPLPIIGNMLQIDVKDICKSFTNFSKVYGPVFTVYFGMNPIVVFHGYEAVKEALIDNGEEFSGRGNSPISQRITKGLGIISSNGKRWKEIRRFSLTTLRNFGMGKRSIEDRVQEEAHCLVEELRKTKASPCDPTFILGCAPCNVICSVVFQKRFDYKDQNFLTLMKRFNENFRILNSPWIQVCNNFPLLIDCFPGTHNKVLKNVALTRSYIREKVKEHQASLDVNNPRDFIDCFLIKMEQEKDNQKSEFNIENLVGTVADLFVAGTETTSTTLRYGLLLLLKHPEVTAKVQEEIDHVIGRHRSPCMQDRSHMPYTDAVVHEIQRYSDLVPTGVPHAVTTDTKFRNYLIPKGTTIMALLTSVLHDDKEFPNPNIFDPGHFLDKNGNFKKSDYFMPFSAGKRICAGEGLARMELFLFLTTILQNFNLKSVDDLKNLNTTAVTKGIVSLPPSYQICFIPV

[3] = biological target: CYP3A4 (Homo sapiens, UniProt P08684); test: CYP inhibition CYP3A4; type: in vitro ADME; details: inhibitor class in words
CYP3A4, sequence (P08684 whole entry): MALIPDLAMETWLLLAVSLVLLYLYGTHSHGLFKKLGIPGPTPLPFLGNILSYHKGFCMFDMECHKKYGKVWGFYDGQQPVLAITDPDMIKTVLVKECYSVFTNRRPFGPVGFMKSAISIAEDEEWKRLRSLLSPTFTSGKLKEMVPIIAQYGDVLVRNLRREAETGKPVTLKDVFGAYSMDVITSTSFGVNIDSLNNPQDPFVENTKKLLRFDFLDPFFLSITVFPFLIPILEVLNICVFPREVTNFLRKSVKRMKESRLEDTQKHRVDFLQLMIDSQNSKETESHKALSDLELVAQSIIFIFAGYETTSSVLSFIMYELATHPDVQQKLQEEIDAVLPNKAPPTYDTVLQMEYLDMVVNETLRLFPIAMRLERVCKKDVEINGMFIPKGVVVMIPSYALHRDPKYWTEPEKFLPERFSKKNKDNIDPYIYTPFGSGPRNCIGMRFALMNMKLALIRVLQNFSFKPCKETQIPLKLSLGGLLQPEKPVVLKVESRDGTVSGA

[4] = Cytotoxicity toward primary peritoneal mouse macrophages; type: cell-based; details: Swiss, mouse, primary peritoneal mouse macrophages (PMM), PMM pCC50, primary mouse macrophages; highest in-test concentration 64 μM
[5] = biological target: CYP2D6 (Homo sapiens, UniProt P10635); test: CYP inhibition CYP2D6; type: in vitro ADME; details: inhibitor class in words
CYP2D6, sequence (P10635 whole entry): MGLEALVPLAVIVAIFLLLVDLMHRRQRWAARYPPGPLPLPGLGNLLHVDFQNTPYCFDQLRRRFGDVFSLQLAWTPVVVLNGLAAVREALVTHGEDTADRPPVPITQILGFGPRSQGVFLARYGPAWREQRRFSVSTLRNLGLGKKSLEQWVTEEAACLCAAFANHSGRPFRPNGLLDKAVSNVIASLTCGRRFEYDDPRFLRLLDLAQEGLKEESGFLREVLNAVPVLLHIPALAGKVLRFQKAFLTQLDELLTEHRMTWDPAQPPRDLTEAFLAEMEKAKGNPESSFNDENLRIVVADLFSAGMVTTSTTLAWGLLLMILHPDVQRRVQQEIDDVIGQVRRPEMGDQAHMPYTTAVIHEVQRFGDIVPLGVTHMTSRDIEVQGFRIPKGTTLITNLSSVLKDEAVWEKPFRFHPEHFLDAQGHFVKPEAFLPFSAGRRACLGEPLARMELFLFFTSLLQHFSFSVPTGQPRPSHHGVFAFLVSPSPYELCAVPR

[6] = system: L. infantum (MHOM/MA(BE)/67/ITMAP263) amastigotes; test: L. infantum intramacrophage amastigote assay; type: cell-based, Leishmania infantum
[7] = biological target: CYP2C19 (Homo sapiens, UniProt P33261); test: CYP inhibition CYP2C19; type: in vitro ADME
CYP2C19, sequence (P33261 whole entry): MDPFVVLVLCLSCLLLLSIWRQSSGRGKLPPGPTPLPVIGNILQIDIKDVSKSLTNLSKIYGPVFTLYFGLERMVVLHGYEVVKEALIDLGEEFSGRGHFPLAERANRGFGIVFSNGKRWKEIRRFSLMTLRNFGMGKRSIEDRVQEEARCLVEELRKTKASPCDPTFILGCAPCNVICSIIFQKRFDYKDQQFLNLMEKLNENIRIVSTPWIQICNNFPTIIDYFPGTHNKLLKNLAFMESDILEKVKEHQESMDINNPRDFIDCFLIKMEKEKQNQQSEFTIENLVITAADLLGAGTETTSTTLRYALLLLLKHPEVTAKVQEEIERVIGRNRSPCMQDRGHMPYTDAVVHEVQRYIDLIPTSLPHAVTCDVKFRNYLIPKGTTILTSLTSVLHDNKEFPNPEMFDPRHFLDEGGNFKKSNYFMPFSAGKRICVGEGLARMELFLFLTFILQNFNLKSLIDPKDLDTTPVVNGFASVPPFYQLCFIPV

[8] = biological target: CYP2C9 (Homo sapiens, UniProt P11712); test: CYP inhibition CYP2C9; type: in vitro ADME
CYP2C9, sequence (P11712 whole entry): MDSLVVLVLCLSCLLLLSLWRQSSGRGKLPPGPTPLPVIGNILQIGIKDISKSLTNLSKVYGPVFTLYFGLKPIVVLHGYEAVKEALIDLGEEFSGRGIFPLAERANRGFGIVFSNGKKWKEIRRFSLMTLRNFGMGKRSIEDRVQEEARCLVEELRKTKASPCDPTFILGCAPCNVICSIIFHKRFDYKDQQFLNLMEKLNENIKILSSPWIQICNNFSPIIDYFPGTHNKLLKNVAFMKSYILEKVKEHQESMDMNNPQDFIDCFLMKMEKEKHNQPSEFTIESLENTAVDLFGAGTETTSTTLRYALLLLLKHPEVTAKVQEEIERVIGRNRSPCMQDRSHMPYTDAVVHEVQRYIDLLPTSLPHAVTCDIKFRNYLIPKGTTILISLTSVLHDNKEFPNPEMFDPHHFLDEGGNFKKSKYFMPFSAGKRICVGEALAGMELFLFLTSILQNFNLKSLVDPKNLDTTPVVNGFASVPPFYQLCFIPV

[9] = Rat hepatocyte intrinsic clearance; type: in vitro ADME; details: rat, rat hepatocytes
[10] = Human liver microsome intrinsic clearance; type: in vitro ADME; details: human, human liver microsomes, pH 7.4, HLM clint
[11] = biological target: hERG (Homo sapiens, UniProt Q12809); test: hERG channel blockage; type: biochemical; details: hERG pIC50
hERG, sequence (Q12809 whole entry): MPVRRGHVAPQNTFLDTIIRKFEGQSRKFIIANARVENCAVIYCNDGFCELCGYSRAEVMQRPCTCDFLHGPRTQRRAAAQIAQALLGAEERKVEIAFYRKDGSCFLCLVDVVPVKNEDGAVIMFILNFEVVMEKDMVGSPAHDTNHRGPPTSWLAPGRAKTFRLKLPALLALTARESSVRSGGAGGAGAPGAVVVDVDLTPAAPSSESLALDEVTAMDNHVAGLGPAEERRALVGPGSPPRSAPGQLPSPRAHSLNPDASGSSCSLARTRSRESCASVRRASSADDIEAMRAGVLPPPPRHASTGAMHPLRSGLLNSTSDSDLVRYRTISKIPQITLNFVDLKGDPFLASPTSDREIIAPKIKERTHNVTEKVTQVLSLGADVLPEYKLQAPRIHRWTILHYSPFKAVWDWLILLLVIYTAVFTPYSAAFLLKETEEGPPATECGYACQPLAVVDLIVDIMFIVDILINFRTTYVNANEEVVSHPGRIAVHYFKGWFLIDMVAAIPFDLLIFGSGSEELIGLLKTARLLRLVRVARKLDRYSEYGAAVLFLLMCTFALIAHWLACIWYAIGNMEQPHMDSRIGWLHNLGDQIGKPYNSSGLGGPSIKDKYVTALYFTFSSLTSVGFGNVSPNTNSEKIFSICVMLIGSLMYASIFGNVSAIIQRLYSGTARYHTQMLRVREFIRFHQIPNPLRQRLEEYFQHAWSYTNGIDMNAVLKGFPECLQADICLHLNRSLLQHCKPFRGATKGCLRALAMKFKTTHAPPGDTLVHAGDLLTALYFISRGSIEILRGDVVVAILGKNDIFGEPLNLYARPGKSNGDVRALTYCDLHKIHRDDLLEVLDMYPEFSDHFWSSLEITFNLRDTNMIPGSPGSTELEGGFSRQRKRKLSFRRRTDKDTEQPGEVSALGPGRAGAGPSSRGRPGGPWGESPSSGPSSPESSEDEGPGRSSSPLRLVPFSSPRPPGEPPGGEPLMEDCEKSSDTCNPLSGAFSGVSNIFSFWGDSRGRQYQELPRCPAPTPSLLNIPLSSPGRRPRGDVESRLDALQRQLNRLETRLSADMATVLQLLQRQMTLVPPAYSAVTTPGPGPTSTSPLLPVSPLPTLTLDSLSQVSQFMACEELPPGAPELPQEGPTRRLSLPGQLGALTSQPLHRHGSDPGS

[12] = biological target: T2, CYP1A2 (Homo sapiens, UniProt P05177); test: CYP inhibition CYP1A2; type: in vitro ADME
T2 sequence (P05177 1-516): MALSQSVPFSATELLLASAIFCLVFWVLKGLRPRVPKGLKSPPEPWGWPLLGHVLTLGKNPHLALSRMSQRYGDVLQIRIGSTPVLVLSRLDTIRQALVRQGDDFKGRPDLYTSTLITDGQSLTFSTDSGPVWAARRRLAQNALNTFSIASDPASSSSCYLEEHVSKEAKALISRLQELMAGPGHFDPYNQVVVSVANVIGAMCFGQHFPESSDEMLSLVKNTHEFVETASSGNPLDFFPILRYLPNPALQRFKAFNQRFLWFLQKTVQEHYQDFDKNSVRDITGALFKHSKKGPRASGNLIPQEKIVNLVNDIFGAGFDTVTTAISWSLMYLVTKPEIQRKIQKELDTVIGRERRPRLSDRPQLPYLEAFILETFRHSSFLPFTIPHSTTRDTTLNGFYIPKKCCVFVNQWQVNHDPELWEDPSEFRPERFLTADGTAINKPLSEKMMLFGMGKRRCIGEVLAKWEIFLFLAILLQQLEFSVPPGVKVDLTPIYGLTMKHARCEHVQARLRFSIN

[13] = Thermodynamic aqueous solubility; type: physicochemical

Papp A→B at 2 h, 10 µM [1]: 16.7 ×10⁻⁶ cm/s
IC50 [2]: 4.9 µM
CYP2C8 inhibition, classification ([2]; inhibitor class in words): moderate inhibitor
CYP3A4 inhibition, classification [3]: moderate inhibition
CYP2D6 inhibition, classification [5]: moderate inhibition
EC50 ([6]; Leishmania infantum, 120 h, read-out: L.inf pEC50 (converted)): 6.31 µM
IC50 [7]: 1.8 µM
CYP2C19 inhibition, classification ([7]; inhibitor class in words): moderate inhibitor
IC50 [8]: 0.76 µM
CYP2C9 inhibition, classification ([8]; inhibitor class in words): strong inhibitor
hepatocyte CLint [9]: 148 µL/min/1e6 cells
microsomal CLint at 3 µM [10]: 91.6 µL/min/mg
IC50 [12]: 0.59 µM
CYP1A2 inhibition, classification ([12]; inhibitor class in words): strong inhibitor
aq. sol. [13]: 0.7 µM
Compound: Fc1ccc(Nc2c(-c3ccccn3)nc3ccc(C4CC4)cn23)cc1 [Compound 3p, 6-Cyclopropyl-N-(4-fluorophenyl)-2-(pyridin-2-yl)imidazo[1,2-a]pyridin-3-amine]
CC50 at 5 days [4]: 7.94 µM
SI ([6]; ratio CC50 μM (PMM)/EC50 μM (L.inf)): 1
IC50 [11]: 12.6 µM
